US20250171417A1, “HETEROCYCLIC DERIVATIVE, AND COMPOSITION AND PHARMACEUTICAL USE THEREOF” (Xizang Haisco Pharmaceutical Co., Ltd., priority 2021, published 2025)

These molecules were tested on Prostate cancer cells 22RV1 (assay: Experiment on inhibiting 22RV1 cell proliferation (CellTiter-Glo, 7 days)). Conditions: Homo sapiens, 168 h, 22RV1 cells, 7 days incubation, cells with nM printed beside the value, read-out: IC50 values for inhibition of 22RVI cells.
Type: cell-based
Protocol: Prostate cancer cells 22RV1 were purchased from ATCC, the cell medium was RPMI 1640+10% FBS, and the cells were cultured in an incubator at 37° C. under 5% CO2. On day 1, the cells in the exponential growth phase were collected. With a 1% css-FBS phenol red-free medium, the cell suspension was adjusted to a corresponding concentration, plated at 2000 cells/well and incubated overnight. On day 2, compounds at different concentrations were added, and the plate was placed in the incubator and incubated for further 7 days. After the incubation was completed, according to operation instructions for a CellTiter-Glo kit (Promega, G7573), 50 μL of CellTiter-Glo reagents, which were already pre-melted and equilibrated to room temperature, were added to each well, and the mixtures were uniformly mixed for 2 min using a microplate shaker. The plate was placed at room temperature for 10 min. and then […] signal values were measured using a microplate reader (PHERAstar FSX). The results were processed according to formula (I), the inhibition rate of the compound at different concentrations was calculated, and the IC50 value of the compound with an inhibition rate of 50% was calculated using origin9.2 software with DoseResp function, wherein RLUcompound was the readout of the treated group, and RLUcontrol was the average value of the DMSO vehicle control group.
With `CC(C)(C(=O)Nc1ccc(C(F)(F)F)cc1-n1cccn1)n1cc(C#CC2CN(c3ccc4c(c3)C(=O)N(C3CCC(=O)NC3=O)C4=O)C2)cn1` (centres unmarked) [Compound 51, N-(2-(1H-pyrazol-1-yl)-4-(trifluoromethyl)phenyl)-2-(4-((1-(2-(2,6-dioxopiperidin-3-yl)-1,3-dioxoisoindolin-5-yl)azetidin-3-yl)ethynyl)-1H-pyrazol-1-yl)-2-methylpropanamide] the IC50 was < 50 nM. `CC(C)(C(=O)Nc1ccc(C#N)c2ccccc12)n1cc(C#CC2(F)CN(c3ccc4c(c3)C(=O)N(C3CCC(=O)NC3=O)C4=O)C2)cn1` (centres unmarked) [Compound 68, N-(4-cyanonaphthalen-1-yl)-2-(4-(2-(1-(2-(2,6-dioxopiperidin-3-yl)-1,3-dioxo-2,3-dihydro-1H-isoindol-5-yl)-3-fluoroazetidin-3-yl)ethynyl)-1H-pyrazol-1-yl)-2-methylpropanamide] was tested, and the IC50 was < 50 nM. With `O=C1CCC(N2C(=O)c3ccc(N4CC(C#Cc5cnn(C6(C(=O)Nc7ccc(C(F)(F)F)c(C8CC8)c7)CCC6)c5)C4)cc3C2=O)C(=O)N1` (centres unmarked) [Compound 75, N-(3-cyclopropyl-4-(trifluoromethyl)phenyl)-1-(4-((1-(2-(2,6-dioxopiperidin-3-yl)-1,3-dioxoisoindolin-5-yl)azetidin-3-yl)ethynyl)-1H-pyrazol-1-yl)cyclobutane-1-carboxamide] the IC50 was < 50 nM. In the case of `O=C1CCC(N2C(=O)c3ccc(N4CC(C#Cc5cnn(C6(C(=O)Nc7ccc(C(F)(F)F)cc7Cl)CC6)c5)C4)cc3C2=O)C(=O)N1` (centres unmarked) [Compound 72, N-(2-chloro-4-(trifluoromethyl)phenyl)-1-(4-((1-(2-(2,6-dioxopiperidin-3-yl)-1,3-dioxoisoindolin-5-yl)azetidin-3-yl)ethynyl)-1H-pyrazol-1-yl)cyclopropane-1-carboxamide], the IC50 was < 50 nM. With `O=C1CCC(N2C(=O)c3ccc(N4CC(C#Cc5cnn(C6(C(=O)Nc7ccc(C(F)(F)F)cc7C7CC7)CCC6)c5)C4)cc3C2=O)C(=O)N1` (centres unmarked) [Compound 35, N-(2-cyclopropyl-4-(trifluoromethyl)phenyl)-1-(4-((1-(2-(2,6-dioxopiperidin-3-yl)-1,3-dioxoisoindolin-5-yl)azetidin-3-yl)ethynyl)-1H-pyrazol-1-yl)cyclobutane-1-carboxamide] the IC50 was < 50 nM. `CC(C)(C(=O)Nc1ccc(C(F)(F)F)cc1C=C(F)F)n1cc(C#CC2CN(c3ccc4c(c3)C(=O)N(C3CCC(=O)NC3=O)C4=O)C2)cn1` (centres unmarked) [Compound 190, N-(2-(2,2-difluorovinyl)-4-(trifluoromethyl)phenyl)-2-(4-((1-(2-(2,6-dioxopiperidin-3-yl)-1,3-dioxoisoindolin-5-yl)azetidin-3-yl)ethynyl)-1H-pyrazol-1-yl)-2-methylpropanamide] was tested, and the IC50 was < 100 nM. For `O=C1CCC(N2C(=O)c3ccc(N4CC(F)(C#Cc5cnn(C6(C(=O)Nc7ccc(C(F)(F)F)cc7Cl)CCC6)c5)C4)cc3C2=O)C(=O)N1` (centres unmarked) [Compound 71], the IC50 was < 50 nM. For `Cc1nn(C(C)(C)C(=O)Nc2ccc(C#N)cc2C2CC2)cc1C#CC1CN(c2ccc3c(c2)C(=O)N(C2CCC(=O)NC2=O)C3=O)C1` (centres unmarked) [Compound 184, N-(4-cyano-2-cyclopropylphenyl)-2-(4-((1-(2-(2,6-dioxopiperidin-3-yl)-1,3-dioxoisoindolin-5-yl)azetidin-3-yl)ethynyl)-3-methyl-1H-pyrazol-1-yl)-2-methylpropanamide], the IC50 was < 100 nM. `C=CCc1cc(C(F)(F)F)ccc1NC(=O)C(C)(C)n1cc(C#CC2CN(c3ccc4c(c3)C(=O)N(C3CCC(=O)NC3=O)C4=O)C2)cn1` (centres unmarked) [Compound 169, N-(2-allyl-4-(trifluoromethyl)phenyl)-2-(4-((1-(2-(2,6-dioxopiperidin-3-yl)-1,3-dioxoisoindolin-5-yl)azetidin-3-yl)ethynyl)-1H-pyrazol-1-yl)-2-methylpropanamide] was tested, and the IC50 was < 50 nM. `CCC(CC)(C(=O)Nc1ccc(C#N)c(C(F)(F)F)c1)n1cc(C#CC2CN(c3ccc4c(c3)C(=O)N(C3CCC(=O)NC3=O)C4=O)C2)cn1` (centres unmarked) [Compound 41, N-(4-cyano-3-(trifluoromethyl)phenyl)-2-(4-((1-(2-(2,6-dioxopiperidin-3-yl)-1,3-dioxoisoindolin-5-yl)azetidin-3-yl)ethynyl)-1H-pyrazol-1-yl)-2-ethylbutanamide] was tested, and the IC50 was < 50 nM. In the case of `CC#Cc1cc(C(F)(F)F)ccc1NC(=O)C(C)(C)n1cc(C#CC2CN(c3ccc4c(c3)C(=O)N(C3CCC(=O)NC3=O)C4=O)C2)c(C)n1` (centres unmarked) [Compound 193, 2-(4-((1-(2-(2,6-dioxopiperidin-3-yl)-1,3-dioxoisoindolin-5-yl)azetidin-3-yl)ethynyl)-3-methyl-1H-pyrazol-1-yl)-2-methyl-N-(2-(prop-1-yn-1-yl)-4-(trifluoromethyl)phenyl) propanamide], the IC50 was < 100 nM. For `Cc1c(C#CC2CN(c3ccc4c(c3)C(=O)N(C3CCC(=O)NC3=O)C4=O)C2)cnn1C1(C(=O)Nc2ccc(C(F)(F)F)cc2Cl)CCC1` (centres unmarked) [Compound 163, N-(2-chloro-4-(trifluoromethyl)phenyl)-1-(4-((1-(2-(2,6-dioxopiperidin-3-yl)-1,3-dioxoisoindolin-5-yl)azetidin-3-yl)ethynyl)-5-methyl-1H-pyrazol-1-yl)cyclobutane-1-carboxamide], the IC50 was < 50 nM. `CC(C)(C(=O)Nc1ccc(C#N)cc1Br)n1cc(C#CC2CN(c3ccc4c(c3)C(=O)N(C3CCC(=O)NC3=O)C4=O)C2)cn1` (centres unmarked) [Compound 82, N-(2-bromo-4-cyanophenyl)-2-(4-((1-(2-(2,6-dioxopiperidin-3-yl)-1,3-dioxoisoindolin-5-yl)azetidin-3-yl)ethynyl)-1H-pyrazol-1-yl)-2-methylpropanamide] was tested, and the IC50 was < 50 nM. With `Cc1c(C#N)ccc(NC(=O)C(C)(C)n2cc(C#CC3CN(c4ccc5c(c4)C(=O)N(C4CCC(=O)NC4=O)C5=O)C3)cn2)c1C` (centres unmarked) [Compound 152, N-(4-cyano-2,3-dimethylphenyl)-2-(4-((1-(2-(2,6-dioxopiperidin-3-yl)-1,3-dioxoisoindolin-5-yl)azetidin-3-yl)ethynyl)-1H-pyrazol-1-yl)-2-methylpropanamide] the IC50 was < 50 nM. With `Cc1cc(C(F)(F)F)ccc1NC(=O)C(C)(C)n1cc(C#CC2CN(c3ccc4c(c3)C(=O)N(C3CCC(=O)NC3=O)C4=O)C2)cn1` (centres unmarked) [Compound 59] the IC50 was < 50 nM.

Same assay, conditions: Homo sapiens, 168 h, 22RV1 cells, 7 days incubation, cells without a unit of their own (μM), read-out: IC50 values for inhibition of 22RVI cells
For `CC(C)(C(=O)Nc1ccc(C(F)(F)F)cc1-c1ccccc1)n1cc(C#CC2CN(c3ccc4c(c3)C(=O)N(C3CCC(=O)NC3=O)C4=O)C2)cn1` (centres unmarked) [Compound 112, 2-(4-((1-(2-(2,6-dioxopiperidin-3-yl)-1,3-dioxoisoindolin-5-yl)azetidin-3-yl)ethynyl)-1H-pyrazol-1-yl)-2-methyl-N-(5-(trifluoromethyl)-[1,1′-biphenyl]-2-yl) propanamide], the IC50 was < 1000 nM. In the case of `Cc1ccc(NC(=O)C(C)(C)n2cc(C#CC3CN(c4ccc5c(c4)C(=O)N(C4CCC(=O)NC4=O)C5=O)C3)cn2)cc1Cl` (centres unmarked) [Compound 18, N-(3-chloro-4-methylphenyl)-2-(4-((1-(2-(2,6-dioxopiperidin-3-yl)-1,3-dioxoisoindolin-5-yl)azetidin-3-yl)ethynyl)-1H-pyrazol-1-yl)-2-methylpropanamide], the IC50 was < 1000 nM. With `O=C1CCC(N2C(=O)c3ccc(N4CCC5(CC4)CC(CN4CCC(c6cnn(C7(C(=O)Nc8ccc(C(F)(F)F)cc8Cl)CCC7)c6)CC4)C5)cc3C2=O)C(=O)N1` (centres unmarked) [Compound 85, N-(2-chloro-4-(trifluoromethyl)phenyl)-1 (4-(1-((7-(2-(2,6-dioxopiperidin-3-yl)-1,3-dioxoisoindolin-5-yl)-7-azaspiro[3.5]nonan-2-yl)methyl)piperidin-4-yl)-1H-pyrazol-1-yl)cyclobutane-1-carboxamide] the IC50 was < 1000 nM. In the case of `Cc1cc(NC(=O)C(C)(C)n2cc(C#CC3CN(c4ccc5c(c4)C(=O)N(C4CCC(=O)NC4=O)C5=O)C3)cn2)ccc1Cl` (centres unmarked) [Compound 16, N-(4-chloro-3-methylphenyl)-2-(4-((1-(2-(2,6-dioxopiperidin-3-yl)-1,3-dioxoisoindolin-5-yl)azetidin-3-yl)ethynyl)-1H-pyrazol-1-yl)-2-methylpropanamide], the IC50 was < 1000 nM. For `CC(C)(C(=O)Nc1ccc(C(F)(F)F)cc1Cl)n1cnc2cc(C#CC3CN(c4ccc5c(c4)C(=O)N(C4CCC(=O)NC4=O)C5=O)C3)ccc21` (centres unmarked) [Compound 162, N-(2-chloro-4-(trifluoromethyl)phenyl)-2-(5-((1-(2-(2,6-dioxopiperidin-3-yl)-1,3-dioxoisoindolin-5-yl)azetidin-3-yl)ethynyl)-1H-benzo[d]imidazol-1-yl)-2-methylpropanamide], the IC50 was < 1000 nM. `CC(C)(C(=O)Nc1ccc(C#N)c2ccccc12)n1cc(C#CC2CN(c3cc4c(cc3F)C(=O)N(C3CCC(=O)NC3=O)C4=O)C2)cn1` (centres unmarked) [Compound 81] was tested, and the IC50 was < 1000 nM. For `CCC(C)(C(=O)Nc1ccc(C#N)c(C(F)(F)F)c1)n1cc(C#CC2CN(c3ccc4c(c3)C(=O)N(C3CCC(=O)NC3=O)C4=O)C2)cn1` (centres unmarked) [Compound 46, N-(4-cyano-3-(trifluoromethyl)phenyl)-2-(4-((1-(2-(2,6-dioxopiperidin-3-yl)-1,3-dioxoisoindolin-S-yl)azetidin-3-yl)ethynyl)-1H-pyrazol-1-yl)-2-methylbutanamide], the IC50 was < 1000 nM. With `CC(C)(C(=O)Nc1ccc(C#N)c(F)c1)n1cc(C#CC2CN(c3ccc4c(c3)C(=O)N(C3CCC(=O)NC3=O)C4=O)C2)cn1` (centres unmarked) [Compound 32, N-(4-cyano-3-fluorophenyl)-2-(4-((1-(2-(2,6-dioxopiperidin-3-yl)-1,3-dioxoisoindolin-5-yl)azetidin-3-yl)ethynyl)-1H-pyrazol-1-yl)-2-methylpropanamide] the IC50 was < 1000 nM.
